doi:10.1101/2023.05.04.537313v1 (biorxiv, 2023)

Biological target: T1, SLC1A3 (Homo sapiens, UniProt P43003)
T1 construct: overexpressed in HEK293-JI cells co-expressing iAspSnFR
Experiment: cellular uptake read by iAspSnFR, flow cytometry
Format: cell-based
Conditions: range is the 95% CI, no central value printed; 3 h starved cells, 30 min incubation; first (TFB-TBOA-sensitive) phase of a biphasic curve; read-out: K0.5

T1 sequence (P43003 whole entry): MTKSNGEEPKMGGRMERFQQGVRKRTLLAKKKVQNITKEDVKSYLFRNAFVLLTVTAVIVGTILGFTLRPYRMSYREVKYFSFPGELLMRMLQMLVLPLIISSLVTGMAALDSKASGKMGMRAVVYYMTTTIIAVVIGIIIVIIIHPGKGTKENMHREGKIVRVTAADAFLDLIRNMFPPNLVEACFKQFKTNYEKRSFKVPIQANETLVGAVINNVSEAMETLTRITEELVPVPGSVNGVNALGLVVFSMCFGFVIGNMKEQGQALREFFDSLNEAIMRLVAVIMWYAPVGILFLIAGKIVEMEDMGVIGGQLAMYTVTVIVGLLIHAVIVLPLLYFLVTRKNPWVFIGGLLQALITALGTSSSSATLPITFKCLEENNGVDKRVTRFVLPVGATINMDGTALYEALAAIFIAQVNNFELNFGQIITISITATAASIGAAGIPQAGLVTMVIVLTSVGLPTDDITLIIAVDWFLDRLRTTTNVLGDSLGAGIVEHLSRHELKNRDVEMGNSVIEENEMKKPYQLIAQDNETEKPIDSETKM

Km: 9 to 47 µM
SMILES: N[C@@H](CC(=O)O)C(=O)O [aspartate]
